Data from publication PMC9797307, “Measurement of Pharmacokinetics and Tissue Distribution of Four Compounds from Nauclea officinalis in Rat Plasma and Tissues through HPLC-MS/MS” (Journal of Analytical Methods in Chemistry, 2022).

Test: Stability of QC samples in rat plasma and tissue homogenates under different storage conditions
Format: in vitro ADME
Conditions: in % (unit assumed)

- Accuracy, Ambient temperature for 4 h (Brain, 2 ng/mL): 110.33 ± 7.55
- Accuracy, Three freeze-thraw cycles (Brain, 2 ng/mL): 105.65 ± 10.92
- Accuracy, −80°C for 30 days (Brain, 2 ng/mL): 90.73 ± 10.25
- Accuracy, Ambient temperature for 4 h (Brain, 4 ng/mL): 89.12 ± 9.00
- Accuracy, Three freeze-thraw cycles (Brain, 4 ng/mL): 90.68 ± 10.51
- Accuracy, −80°C for 30 days (Brain, 4 ng/mL): 105.32 ± 9.72
- Accuracy, Ambient temperature for 4 h (Brain, 100 ng/mL): 91.93 ± 9.93
- Accuracy, Three freeze-thraw cycles (Brain, 100 ng/mL): 108.13 ± 9.91
- Accuracy, −80°C for 30 days (Brain, 100 ng/mL): 105.48 ± 6.92
- Accuracy, Ambient temperature for 4 h (Brain, 2400 ng/mL): 102.93 ± 5.79
- Accuracy, Three freeze-thraw cycles (Brain, 2400 ng/mL): 96.57 ± 10.12
- Accuracy, −80°C for 30 days (Brain, 2400 ng/mL): 97.98 ± 9.56
- Accuracy, Ambient temperature for 4 h (Heart, 2 ng/mL): 102.73 ± 12.98
- Accuracy, Three freeze-thraw cycles (Heart, 2 ng/mL): 91.72 ± 6.33
- Accuracy, −80°C for 30 days (Heart, 2 ng/mL): 88.98 ± 5.73
- Accuracy, Ambient temperature for 4 h (Heart, 4 ng/mL): 96.88 ± 11.06
- Accuracy, Three freeze-thraw cycles (Heart, 4 ng/mL): 99.03 ± 10.17
- Accuracy, −80°C for 30 days (Heart, 4 ng/mL): 102.27 ± 10.30
- Accuracy, Ambient temperature for 4 h (Heart, 100 ng/mL): 112.83 ± 9.11
- Accuracy, Three freeze-thraw cycles (Heart, 100 ng/mL): 111.00 ± 7.72
- Accuracy, −80°C for 30 days (Heart, 100 ng/mL): 112.62 ± 8.15
- Accuracy, Ambient temperature for 4 h (Heart, 2400 ng/mL): 108.60 ± 8.41
- Accuracy, Three freeze-thraw cycles (Heart, 2400 ng/mL): 110.55 ± 8.11
- Accuracy, −80°C for 30 days (Heart, 2400 ng/mL): 104.85 ± 10.69
- Accuracy, Ambient temperature for 4 h (Kidney, 2 ng/mL): 110.07 ± 7.34
- Accuracy, Three freeze-thraw cycles (Kidney, 2 ng/mL): 97.22 ± 7.67
- Accuracy, −80°C for 30 days (Kidney, 2 ng/mL): 89.87 ± 9.23
- Accuracy, Ambient temperature for 4 h (Kidney, 4 ng/mL): 87.63 ± 7.76
- Accuracy, Three freeze-thraw cycles (Kidney, 4 ng/mL): 87.60 ± 9.26
- Accuracy, −80°C for 30 days (Kidney, 4 ng/mL): 89.60 ± 9.05
- Accuracy, Ambient temperature for 4 h (Kidney, 100 ng/mL): 112.00 ± 7.01
- Accuracy, Three freeze-thraw cycles (Kidney, 100 ng/mL): 111.17 ± 7.44
- Accuracy, −80°C for 30 days (Kidney, 100 ng/mL): 103.22 ± 11.32
- Accuracy, Ambient temperature for 4 h (Kidney, 2400 ng/mL): 100.55 ± 5.11
- Accuracy, Three freeze-thraw cycles (Kidney, 2400 ng/mL): 100.45 ± 3.96
- Accuracy, −80°C for 30 days (Kidney, 2400 ng/mL): 101.23 ± 4.69
- Accuracy, Ambient temperature for 4 h (Liver, 2 ng/mL): 88.47 ± 6.93
- Accuracy, Three freeze-thraw cycles (Liver, 2 ng/mL): 88.47 ± 7.22
- Accuracy, −80°C for 30 days (Liver, 2 ng/mL): 87.43 ± 7.74
- Accuracy, Ambient temperature for 4 h (Liver, 4 ng/mL): 86.27 ± 7.32
- Accuracy, Three freeze-thraw cycles (Liver, 4 ng/mL): 86.00 ± 6.23
- Accuracy, −80°C for 30 days (Liver, 4 ng/mL): 87.30 ± 4.35
- Accuracy, Ambient temperature for 4 h (Liver, 100 ng/mL): 99.82 ± 2.89
- Accuracy, Three freeze-thraw cycles (Liver, 100 ng/mL): 102.27 ± 4.97
- Accuracy, −80°C for 30 days (Liver, 100 ng/mL): 87.13 ± 5.77
- Accuracy, Ambient temperature for 4 h (Liver, 2400 ng/mL): 104.17 ± 2.14
- Accuracy, Three freeze-thraw cycles (Liver, 2400 ng/mL): 99.98 ± 1.86
- Accuracy, −80°C for 30 days (Liver, 2400 ng/mL): 87.02 ± 5.24
- Accuracy, Ambient temperature for 4 h (Lung, 2 ng/mL): 103.27 ± 8.01
- Accuracy, Three freeze-thraw cycles (Lung, 2 ng/mL): 112.93 ± 9.57
- Accuracy, −80°C for 30 days (Lung, 2 ng/mL): 113.77 ± 9.20
- Accuracy, Ambient temperature for 4 h (Lung, 4 ng/mL): 101.83 ± 6.41
- Accuracy, Three freeze-thraw cycles (Lung, 4 ng/mL): 100.07 ± 10.39
- Accuracy, −80°C for 30 days (Lung, 4 ng/mL): 98.77 ± 6.15
- Accuracy, Ambient temperature for 4 h (Lung, 100 ng/mL): 111.50 ± 5.47
- Accuracy, Three freeze-thraw cycles (Lung, 100 ng/mL): 110.17 ± 7.14
- Accuracy, −80°C for 30 days (Lung, 100 ng/mL): 110.03 ± 9.33
- Accuracy, Ambient temperature for 4 h (Lung, 2400 ng/mL): 100.67 ± 10.17
- Accuracy, Three freeze-thraw cycles (Lung, 2400 ng/mL): 104.88 ± 8.23
- Accuracy, −80°C for 30 days (Lung, 2400 ng/mL): 110.17 ± 4.54
- Accuracy, Ambient temperature for 4 h (Plasma, 2 ng/mL): 101.68 ± 8.39
- Accuracy, Three freeze-thraw cycles (Plasma, 2 ng/mL): 101.23 ± 12.44
- Accuracy, −80°C for 30 days (Plasma, 2 ng/mL): 93.35 ± 10.78
- Accuracy, Ambient temperature for 4 h (Plasma, 4 ng/mL): 86.78 ± 6.16
- Accuracy, Three freeze-thraw cycles (Plasma, 4 ng/mL): 95.02 ± 5.39
- Accuracy, −80°C for 30 days (Plasma, 4 ng/mL): 98.92 ± 12.32
- Accuracy, Ambient temperature for 4 h (Plasma, 100 ng/mL): 112.33 ± 3.72
- Accuracy, Three freeze-thraw cycles (Plasma, 100 ng/mL): 100.68 ± 6.22
- Accuracy, −80°C for 30 days (Plasma, 100 ng/mL): 113.17 ± 4.96
- Accuracy, Ambient temperature for 4 h (Plasma, 2400 ng/mL): 98.40 ± 5.56
- Accuracy, Three freeze-thraw cycles (Plasma, 2400 ng/mL): 91.98 ± 4.75
- Accuracy, −80°C for 30 days (Plasma, 2400 ng/mL): 112.67 ± 7.58
- Accuracy, Ambient temperature for 4 h (Small intestine, 2 ng/mL): 105.00 ± 8.20
- Accuracy, Three freeze-thraw cycles (Small intestine, 2 ng/mL): 103.90 ± 4.49
- Accuracy, −80°C for 30 days (Small intestine, 2 ng/mL): 101.42 ± 7.82
- Accuracy, Ambient temperature for 4 h (Small intestine, 4 ng/mL): 91.73 ± 4.49
- Accuracy, Three freeze-thraw cycles (Small intestine, 4 ng/mL): 99.78 ± 7.70
- Accuracy, −80°C for 30 days (Small intestine, 4 ng/mL): 106.70 ± 5.43
- Accuracy, Ambient temperature for 4 h (Small intestine, 100 ng/mL): 95.90 ± 12.31
- Accuracy, Three freeze-thraw cycles (Small intestine, 100 ng/mL): 100.93 ± 12.33
- Accuracy, −80°C for 30 days (Small intestine, 100 ng/mL): 99.07 ± 12.41
- Accuracy, Ambient temperature for 4 h (Small intestine, 2400 ng/mL): 112.00 ± 5.37
- Accuracy, Three freeze-thraw cycles (Small intestine, 2400 ng/mL): 111.67 ± 6.12
- Accuracy, −80°C for 30 days (Small intestine, 2400 ng/mL): 110.83 ± 6.68
- Accuracy, Ambient temperature for 4 h (Spleen, 2 ng/mL): 97.62 ± 8.11
- Accuracy, Three freeze-thraw cycles (Spleen, 2 ng/mL): 105.55 ± 7.56
- Accuracy, −80°C for 30 days (Spleen, 2 ng/mL): 109.70 ± 13.05
- Accuracy, Ambient temperature for 4 h (Spleen, 4 ng/mL): 105.82 ± 9.91
- Accuracy, Three freeze-thraw cycles (Spleen, 4 ng/mL): 103.68 ± 9.71
- Accuracy, −80°C for 30 days (Spleen, 4 ng/mL): 98.88 ± 4.16
- Accuracy, Ambient temperature for 4 h (Spleen, 100 ng/mL): 112.00 ± 7.82
- Accuracy, Three freeze-thraw cycles (Spleen, 100 ng/mL): 106.82 ± 6.88
- Accuracy, −80°C for 30 days (Spleen, 100 ng/mL): 111.17 ± 7.17
- Accuracy, Ambient temperature for 4 h (Spleen, 2400 ng/mL): 101.52 ± 7.73
- Accuracy, Three freeze-thraw cycles (Spleen, 2400 ng/mL): 106.67 ± 5.43
- Accuracy, −80°C for 30 days (Spleen, 2400 ng/mL): 104.73 ± 7.04
- Accuracy, Ambient temperature for 4 h (Stomach, 2 ng/mL): 113.08 ± 11.06
- Accuracy, Three freeze-thraw cycles (Stomach, 2 ng/mL): 113.58 ± 8.22
- Accuracy, −80°C for 30 days (Stomach, 2 ng/mL): 109.08 ± 9.97
- Accuracy, Ambient temperature for 4 h (Stomach, 4 ng/mL): 102.70 ± 10.17
- Accuracy, Three freeze-thraw cycles (Stomach, 4 ng/mL): 98.87 ± 9.82
- Accuracy, −80°C for 30 days (Stomach, 4 ng/mL): 89.87 ± 7.04
- Accuracy, Ambient temperature for 4 h (Stomach, 100 ng/mL): 93.75 ± 8.65
- Accuracy, Three freeze-thraw cycles (Stomach, 100 ng/mL): 93.47 ± 6.76
- Accuracy, −80°C for 30 days (Stomach, 100 ng/mL): 107.33 ± 5.89
- Accuracy, Ambient temperature for 4 h (Stomach, 2400 ng/mL): 107.17 ± 8.68
- Accuracy, Three freeze-thraw cycles (Stomach, 2400 ng/mL): 100.23 ± 4.63
- Accuracy, −80°C for 30 days (Stomach, 2400 ng/mL): 99.73 ± 10.09
SMILES: O=C(/C=C/c1ccc(O)c(O)c1)O[C@@H]1C[C@](O)(C(=O)O)C[C@@H](O)[C@H]1O [Chlorogenic acid]
